# Literature values, collected in patent publication US6486182B1, “Mutual prodrugs of amlodipine and atorvastatin” (Pfizer Inc, priority 1999, dated 2002).
# How the values were obtained:
# calcium channel = details: see PCT/EP94/02697
# [1] = system: smooth muscle cell migration; details: see PCT/EP95/00847
smiles,measurement,setting,value
"CCOC(=O)C1=C(COCCN)NC(C)=C(C(=O)OC)C1c1ccccc1Cl (single isomer, unassigned) [R(+) isomer, Amlodipine]",calcium channel blocking activity,calcium channel,little or no calcium channel blocking activity
same,inhibition of smooth muscle cell migration,[1],potent inhibitor
